Source: PubChem BioAssay AID1963436 (Molecular Pharmacology Branch, DTP, NCI, 2024)

Test system: OVCAR-5 complex spheroid (HUVEC/MSC), viability % T/C
Experiment: Anticancer human tumor OVCAR-5 cell line growth inhibition [Asc];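 note: spheroids exposed to agents for 7 days before readout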;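 for viability, T/C: 100% = DMSO vehicle-treated wells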
Conditions: for IC50: curve of first compound; for viability, T/C: stronger effect = lower value
How it was run: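 Stromal components (HUVEC and hMSC) are co-assembled with the cancer cells into multicellular spheroids. Drugs are then added singly or paired, at concentrations falling by half-log increments from a clinically achievable maximum, capped at 10 microM without known Cmax.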

[1] = second compound 0.1 µM, first compound 0.0316 µM
[2] = second compound 0.1 µM, first compound 0.1 µM
[3] = second compound 0.1 µM, first compound 0.316 µM
[4] = second compound 0.1 µM, first compound 1 µM
[5] = second compound 0.316 µM, first compound 0.0316 µM
[6] = second compound 0.316 µM, first compound 0.1 µM
[7] = second compound 0.316 µM, first compound 0.316 µM
[8] = second compound 0.316 µM, first compound 1 µM
[9] = second compound 1 µM, first compound 0.0316 µM
[10] = second compound 1 µM, first compound 0.1 µM
[11] = second compound 1 µM, first compound 0.316 µM
[12] = second compound 1 µM, first compound 1 µM
[13] = second compound 3.16 µM, first compound 0.0316 µM
[14] = second compound 3.16 µM, first compound 0.1 µM
[15] = second compound 3.16 µM, first compound 0.316 µM
[16] = second compound 3.16 µM, first compound 1 µM
[17] = second compound 10 µM, first compound 0.0316 µM
[18] = second compound 10 µM, first compound 0.1 µM
[19] = second compound 10 µM, first compound 0.316 µM
[20] = second compound 10 µM, first compound 1 µM

Q: For `O=C(c1cc(Cc2n[nH]c(=O)c3ccccc23)ccc1F)N1CCN(C(=O)C2CC2)CC1` + Cc1c(S(C)(=O)=O)c(-c2cc(F)cc(N3CCN(c4ccc(NS(=O)(=O)c5ccc(NC(CCN6CCC(C(=O)OCCCP(=O)(O)O)CC6)CSc6ccccc6)c(S(=O)(=O)C(F)(F)F)c5)cc4)CC3)c2)c(-c2ccc(Cl)cc2)n1C(C)C, which IC50 (second compound 0.1 µM) is on record?
A: > 10000 nM

Q: What about the IC50 (second compound 0.316 µM) of the same compound?
A: > 10000 nM

Q: And the IC50 (second compound 1 µM)?
A: > 10000 nM

Q: And the IC50 (second compound 3.16 µM)?
A: > 10000 nM

Q: And the IC50 (second compound 10 µM)?
A: > 10000 nM

Q: What about the viability, T/C [1] of the same compound?
A: 103%

Q: What about the viability, T/C [2] of the same compound?
A: 101%

Q: What about the viability, T/C [3] of the same compound?
A: 90.8%

Q: And the viability, T/C [4]?
A: 82.6%

Q: And the viability, T/C (second compound 0.1 µM, first compound 3.16 µM)?
A: 91.5%

Q: And the viability, T/C (second compound 0.1 µM, first compound 10 µM)?
A: 76.1%

Q: And the viability, T/C [5]?
A: 95.8%

Q: What about the viability, T/C [6] of the same compound?
A: 95.6%

Q: What about the viability, T/C [7] of the same compound?
A: 84.8%

Q: What about the viability, T/C [8] of the same compound?
A: 79.6%

Q: What about the viability, T/C (second compound 0.316 µM, first compound 3.16 µM) of the same compound?
A: 83.6%

Q: And the viability, T/C (second compound 0.316 µM, first compound 10 µM)?
A: 78.5%

Q: What about the viability, T/C [9] of the same compound?
A: 92.2%

Q: And the viability, T/C [10]?
A: 89.8%

Q: What about the viability, T/C [11] of the same compound?
A: 88%

Q: And the viability, T/C [12]?
A: 81.4%

Q: What about the viability, T/C (second compound 1 µM, first compound 3.16 µM) of the same compound?
A: 78.4%

Q: And the viability, T/C (second compound 1 µM, first compound 10 µM)?
A: 62.6%

Q: What about the viability, T/C [13] of the same compound?
A: 86.2%

Q: And the viability, T/C [14]?
A: 94.1%

Q: What about the viability, T/C [15] of the same compound?
A: 82.3%

Q: What about the viability, T/C [16] of the same compound?
A: 75.4%

Q: And the viability, T/C (second compound 3.16 µM, first compound 3.16 µM)?
A: 73.4%

Q: And the viability, T/C (second compound 3.16 µM, first compound 10 µM)?
A: 64.7%

Q: And the viability, T/C [17]?
A: 130%

Q: And the viability, T/C [18]?
A: 128%

Q: What about the viability, T/C [19] of the same compound?
A: 114%

Q: And the viability, T/C [20]?
A: 95.5%

Q: And the viability, T/C (second compound 10 µM, first compound 3.16 µM)?
A: 94.1%

Q: What about the viability, T/C (second compound 10 µM, first compound 10 µM) of the same compound?
A: 73.6%

Q: Which IC50 (second compound 0.1 µM) does the source give for `O=C(c1ccc(F)c(F)c1Nc1ccc(I)cc1F)N1CC(O)([C@@H]2CCCCN2)C1` + Cc1c(S(C)(=O)=O)c(-c2cc(F)cc(N3CCN(c4ccc(NS(=O)(=O)c5ccc(NC(CCN6CCC(C(=O)OCCCP(=O)(O)O)CC6)CSc6ccccc6)c(S(=O)(=O)C(F)(F)F)c5)cc4)CC3)c2)c(-c2ccc(Cl)cc2)n1C(C)C here?
A: 150 nM

Q: What about the IC50 (second compound 0.316 µM) of the same compound?
A: 82.6 nM

Q: What about the IC50 (second compound 1 µM) of the same compound?
A: 78.5 nM

Q: And the IC50 (second compound 3.16 µM)?
A: 59 nM

Q: And the IC50 (second compound 10 µM)?
A: 75.7 nM

Q: And the viability, T/C (second compound 0.1 µM, first compound 0.00316 µM)?
A: 104%

Q: What about the viability, T/C (second compound 0.1 µM, first compound 0.01 µM) of the same compound?
A: 102%

Q: What about the viability, T/C [1] of the same compound?
A: 71.8%

Q: And the viability, T/C [2]?
A: 54.8%

Q: And the viability, T/C [3]?
A: 41.9%

Q: And the viability, T/C [4]?
A: 17.6%

Q: What about the viability, T/C (second compound 0.316 µM, first compound 0.00316 µM) of the same compound?
A: 93.7%

Q: What about the viability, T/C (second compound 0.316 µM, first compound 0.01 µM) of the same compound?
A: 97.3%

Q: What about the viability, T/C [5] of the same compound?
A: 66.7%

Q: What about the viability, T/C [6] of the same compound?
A: 42.1%

Q: And the viability, T/C [7]?
A: 32.2%

Q: What about the viability, T/C [8] of the same compound?
A: 9.34%

Q: And the viability, T/C (second compound 1 µM, first compound 0.00316 µM)?
A: 90.7%

Q: What about the viability, T/C (second compound 1 µM, first compound 0.01 µM) of the same compound?
A: 95%

Q: What about the viability, T/C [9] of the same compound?
A: 74.5%

Q: And the viability, T/C [10]?
A: 38.3%

Q: And the viability, T/C [11]?
A: 26.9%

Q: And the viability, T/C [12]?
A: 4.46%

Q: And the viability, T/C (second compound 3.16 µM, first compound 0.00316 µM)?
A: 81.2%

Q: And the viability, T/C (second compound 3.16 µM, first compound 0.01 µM)?
A: 90.4%

Q: And the viability, T/C [13]?
A: 68.1%

Q: And the viability, T/C [14]?
A: 31.6%

Q: And the viability, T/C [15]?
A: 18.6%

Q: What about the viability, T/C [16] of the same compound?
A: 1.8%

Q: And the viability, T/C (second compound 10 µM, first compound 0.00316 µM)?
A: 115%

Q: What about the viability, T/C (second compound 10 µM, first compound 0.01 µM) of the same compound?
A: 112%

Q: What about the viability, T/C [17] of the same compound?
A: 78.8%

Q: And the viability, T/C [18]?
A: 41.1%

Q: What about the viability, T/C [19] of the same compound?
A: 12.6%

Q: And the viability, T/C [20]?
A: 2.47%
